Measured values published in US6656943B2, “1-phenyl-4-benzlpiperazines: dopamine receptor subtype specific ligands” (Neurogen Corporation, priority 1997, dated 2003).
Where a name gives a salt, the structure may show the parent alone.

Legend:
D4 receptors = molecular target: T1, D4 receptors (Homo sapiens, UniProt P21917); assay: D4 receptor binding assay (3H-YM 09151-2 displacement)
T1 construct: expressed in transfected cells; host or cells: COS cells
T1 sequence (P21917 1-419): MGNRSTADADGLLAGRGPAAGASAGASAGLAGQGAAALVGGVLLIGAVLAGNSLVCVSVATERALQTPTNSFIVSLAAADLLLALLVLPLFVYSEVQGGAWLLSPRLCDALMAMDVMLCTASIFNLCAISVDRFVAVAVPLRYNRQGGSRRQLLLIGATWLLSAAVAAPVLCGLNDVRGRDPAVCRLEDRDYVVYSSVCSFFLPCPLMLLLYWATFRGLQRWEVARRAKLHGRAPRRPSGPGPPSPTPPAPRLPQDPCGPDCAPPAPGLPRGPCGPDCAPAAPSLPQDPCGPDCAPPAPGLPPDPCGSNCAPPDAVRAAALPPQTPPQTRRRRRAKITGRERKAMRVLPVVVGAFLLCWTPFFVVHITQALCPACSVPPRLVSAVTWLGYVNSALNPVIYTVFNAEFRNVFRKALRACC
Description: (§1) Pellets of COS cells containing recombinantly produced D2 or D4 receptors from human are used for the assays. The sample is homogenized in 100 volumes (w/vol) of 0.05 M Tris HCl buffer at 4° C. and pH 7.4. The sample is then centrifuged at 30,000×g and resuspended and rehomogenized. The sample is then centrifuged as described above and the final tissue sample is frozen until use. The tissue is resuspended 1:20 (wt/vol) in 0.05 M Tris HCl buffer containing 100 mM NaCl.
(§2) Incubations are carried out at […]. and contain 0.4 ml of tissue sample, 0.5 nM 3H-YM 09151-2 and the compound of interest in a total incubation mixture of 1.0 ml. Nonspecific binding is defined as that binding found in the presence of 1 mM spiperone; without further additions, nonspecific binding is less than 20% of total binding. Representative binding characteristics for compounds of the invention for the D2 and D4 receptor subtypes are shown in Table 2 for cloned human dopamine receptors. Typically, the compounds of the invention have similar binding profiles.

D2 receptors = molecular target: T2, D2 receptors (Homo sapiens, UniProt P14416); assay: D2 receptor binding assay (3H-YM 09151-2 displacement)
T2 construct: expressed in transfected cells; host or cells: COS cells
T2 sequence (P14416 whole entry): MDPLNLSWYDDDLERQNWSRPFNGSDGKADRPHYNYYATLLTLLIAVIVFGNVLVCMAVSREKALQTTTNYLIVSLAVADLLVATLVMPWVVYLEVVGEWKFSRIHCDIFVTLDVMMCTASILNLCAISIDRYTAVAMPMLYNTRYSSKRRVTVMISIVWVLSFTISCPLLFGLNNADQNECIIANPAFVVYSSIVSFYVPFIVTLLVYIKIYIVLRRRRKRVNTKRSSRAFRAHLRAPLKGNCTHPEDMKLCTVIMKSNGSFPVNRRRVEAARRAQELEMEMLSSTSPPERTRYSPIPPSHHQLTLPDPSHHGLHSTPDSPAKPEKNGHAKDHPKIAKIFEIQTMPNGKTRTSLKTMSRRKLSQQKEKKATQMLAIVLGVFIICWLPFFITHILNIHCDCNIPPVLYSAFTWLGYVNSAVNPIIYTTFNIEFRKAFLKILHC
Description: as §1, §2

`Clc1ccc(CN2CCN(c3ccc(Cl)c(Cl)c3)CC2)cc1` showed a melting point of 82 to 83 °C.

`Cc1cccc(N2CCN(Cc3ccc(Cl)cc3)CC2)c1.O=C(O)C(=O)O.O=C(O)C(=O)O` showed a melting point of 233 to 235 °C.

For `Clc1ccc(CN2CCN(c3ccccc3Cl)CC2)cc1.O=C(O)C(=O)O.O=C(O)C(=O)O`, the melting point was 203 to 204 °C.

Compound `Cc1ccccc1N1CCN(Cc2ccc(Cl)cc2)CC1.O=C(O)C(=O)O.O=C(O)C(=O)O` has a melting point of 205 to 206 °C.

In the case of `Cc1ccc(CN2CCN(c3ccc(Cl)cc3)CC2)cc1` [Compound 4, 1-(4-chlorophenyl)-4-(4-methylbenzyl)piperazine dihydrobromide], the Ki (D4 receptors) is reported as 15 nM and the Ki (D2 receptors) is reported as > 300 nM.

For `Cc1ccc(CN2CCN(c3cccc(Cl)c3)CC2)cc1.O=C(O)C(=O)O.O=C(O)C(=O)O`, the melting point was 199 to 200 °C.

With `Br.Br.Clc1ccc(CN2CCN(c3cccc(Cl)c3)CC2)cc1` the melting point was 238 to 240 °C.

Work on `Cc1ccc(N2CCN(Cc3ccc(Cl)cc3)CC2)cc1.O=C(O)C(=O)O.O=C(O)C(=O)O` yielded a melting point of 204 to 206 °C.

For `Cc1ccc(N2CCN(Cc3ccc(Cl)cc3)CC2)cc1C` [Compound 2, 1-(3,4-dimethylphenyl)-4-(4-chlorobenzyl)piperazine dihydrochloride], the Ki (D4 receptors) was 16 nM and the Ki (D2 receptors) was > 600 nM.

Work on `Cc1ccc(N2CCN(Cc3ccc(Cl)cc3)CC2)cc1C` (as salt: hydrochloride) [Compound 2, 1-(3,4-dimethylphenyl)-4-(4-chlorobenzyl)piperazine dihydrochloride] yielded a melting point of 225 to 228 °C.

In the case of `Clc1ccc(CN2CCN(c3ccccc3)CC2)cc1.O=C(O)C(=O)O.O=C(O)C(=O)O`, the melting point is reported as 228 to 231 °C.

`Br.Br.CCOc1ccccc1N1CCN(Cc2ccc(Cl)cc2)CC1` showed a melting point of 215 to 217 °C.

`COc1ccccc1N1CCN(Cc2ccc(Cl)cc2)CC1.O=C(O)C(=O)O.O=C(O)C(=O)O` showed a melting point of 217 to 220 °C.

Compound `COc1ccc(N2CCN(Cc3ccc(Cl)cc3)CC2)cc1` (as salt: oxalate) [Compound 3, 1-(4-methoxyphenyl)-4-(4-chlorobenzyl)piperazine dioxalate] has a melting point of 211 to 212 °C.

For `CCOc1ccc(N2CCN(Cc3ccc(Cl)cc3)CC2)cc1.Cl.Cl`, the melting point was 235 to 237 °C.

With `Clc1ccc(CN2CCN(c3ccc(Cl)cc3)CC2)cc1` [Compound 1, 1-(4-Chlorophenyl)-4-(4-chlorobenlzyl)piperazine Dihydrochloride] the Ki (D4 receptors) was 5 nM and the Ki (D2 receptors) was > 1000 nM.

In the case of `COc1ccc(N2CCN(Cc3ccc(Cl)cc3)CC2)cc1` [Compound 3, 1-(4-methoxyphenyl)-4-(4-chlorobenzyl)piperazine dioxalate], the Ki (D4 receptors) is reported as 5 nM and the Ki (D2 receptors) is reported as > 1000 nM.
